The results in this text go back to PubChem BioAssay (NCI).

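A five-concentration, 48-hour dose response in 96-well plates underlies each endpoint, interpolated linearly between surrounding concentrations. TGI marks complete inhibition of growth.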

Some test systems named below: UACC-257 melanoma; HCT-116 colon; OVCAR-8 ovarian; UO-31 renal; A498 renal; SK-OV-3 ovarian; OVCAR-4 ovarian; OVCAR-3 ovarian; SW-620 colon; SK-MEL-5 melanoma; MCF7 breast.
Common to all, as to assay: NCI tumour cell line growth inhibition, 48 h

Consider `C=CC(=O)c1ccc2c(c1)OCCOCCOCCOCCOCCO2`, for which the TGI with UACC-257 melanoma was 35.6 µM; with HCT-116 colon, more than 56.2 µM; with OVCAR-8 ovarian, 41.9 µM; with UO-31 renal it was more than 58 µM; with A498 renal, more than 100 µM; with SK-OV-3 ovarian, more than 100 µM. For the same compound, the TGI in the assay on OVCAR-4 ovarian is 36.3 µM; with OVCAR-3 ovarian it was 35.4 µM; with SW-620 colon, 35.2 µM; in the assay with SK-MEL-5 melanoma, more than 100 µM; in the assay on MCF7 breast, 32.4 µM.
As to `Nc1nc2ncc(SCc3ccc(C(=O)NC(CCC(=O)O)C(=O)O)cc3)cc2c(=O)[nH]1` (stereo not drawn), the TGI in the assay with UACC-257 melanoma, in the assay with HCT-116 colon, in the assay with OVCAR-8 ovarian, in the assay on UO-31 renal, in the assay with A498 renal and with SK-OV-3 ovarian was more than 100 µM throughout. Moreover, the TGI in the assay with OVCAR-4 ovarian, with OVCAR-3 ovarian, in the assay with SW-620 colon, in the assay on SK-MEL-5 melanoma and in the assay with MCF7 breast was more than 100 µM throughout.
`Cc1ccc(S(=O)(=O)N2CCN3C(=O)c4ccccc4C32c2ccc(F)cc2)cc1` (stereo not drawn): the TGI was more than 100 µM with UACC-257 melanoma; more than 100 µM in the assay on HCT-116 colon; more than 100 µM in the assay with OVCAR-8 ovarian; more than 100 µM in the assay with UO-31 renal; 63.5 µM with A498 renal; more than 100 µM with SK-OV-3 ovarian. For the same compound, the TGI is more than 100 µM in the assay with OVCAR-4 ovarian; more than 100 µM with OVCAR-3 ovarian; more than 100 µM with SW-620 colon; 35.2 µM in the assay with SK-MEL-5 melanoma; more than 100 µM in the assay with MCF7 breast.
`N#C/C(=C\NC(=S)Nc1ccc(S(=O)(=O)Nc2ccccn2)cc1)C(N)=O`: the TGI in the assay on UACC-257 melanoma, with HCT-116 colon, in the assay on OVCAR-8 ovarian, in the assay with UO-31 renal, with A498 renal and in the assay with SK-OV-3 ovarian was more than 100 µM in each case. In addition, the TGI in the assay on OVCAR-4 ovarian, in the assay with OVCAR-3 ovarian, in the assay on SW-620 colon, in the assay with SK-MEL-5 melanoma and in the assay with MCF7 breast was more than 100 µM throughout.
`C[C@]12OC[C@H](c3ccccc3)N1C(=O)C1[C@H]2CC12SCCS2` (stereo partly drawn): the TGI in the assay on UACC-257 melanoma, in the assay on HCT-116 colon, in the assay with OVCAR-8 ovarian, in the assay with UO-31 renal, in the assay with A498 renal and with SK-OV-3 ovarian was more than 100 µM each time. Moreover, the TGI with OVCAR-4 ovarian, in the assay with OVCAR-3 ovarian, with SW-620 colon, with SK-MEL-5 melanoma and in the assay with MCF7 breast was more than 100 µM throughout.
For `c1sc(NC2=NCCO2)c2c1CCCC2`, the TGI with UACC-257 melanoma, with HCT-116 colon, in the assay with OVCAR-8 ovarian, in the assay on UO-31 renal, in the assay on A498 renal and in the assay on SK-OV-3 ovarian was more than 100 µM throughout. Also, the TGI with OVCAR-4 ovarian, in the assay on OVCAR-3 ovarian, with SW-620 colon, in the assay with SK-MEL-5 melanoma and with MCF7 breast was more than 100 µM in each case.
Take `COC(=O)C1=C(C(=O)OC)C2OC1C1C2C2(C)C(C)=C(C)C1(C)S2=O` (stereo not drawn): the TGI was 29.6 µM with UACC-257 melanoma; 27 µM with HCT-116 colon; more than 100 µM with OVCAR-8 ovarian; 17.6 µM with UO-31 renal; 68.4 µM in the assay with A498 renal; more than 100 µM in the assay with SK-OV-3 ovarian. The TGI with OVCAR-4 ovarian is 24.6 µM; in the assay with OVCAR-3 ovarian it was 25.5 µM; in the assay with SW-620 colon, 12.6 µM; in the assay on SK-MEL-5 melanoma, 19.2 µM; in the assay with MCF7 breast, more than 45.3 µM.
`CCOC(=O)CCC(NC(=O)c1ccc(OCc2nc3cc(C(F)(F)F)ccc3nc2-c2ccccc2)cc1)C(=O)OCC` (stereo not drawn): the TGI in the assay on UACC-257 melanoma, in the assay on HCT-116 colon, in the assay on OVCAR-8 ovarian, in the assay on UO-31 renal, in the assay with A498 renal and in the assay with SK-OV-3 ovarian was more than 100 µM throughout. Also, the TGI in the assay with OVCAR-4 ovarian is 38.4 µM; in the assay on OVCAR-3 ovarian it was more than 100 µM; in the assay on SW-620 colon it was more than 100 µM; in the assay with SK-MEL-5 melanoma, 60.4 µM; with MCF7 breast, 19.4 µM.
Regarding `CC(C)(C)C(=O)C(CC(=O)c1ccccc1)C(=O)C(C)(C)C`, the TGI with UACC-257 melanoma, in the assay on HCT-116 colon, in the assay on OVCAR-8 ovarian, in the assay on UO-31 renal, with A498 renal and in the assay on SK-OV-3 ovarian was more than 100 µM each time. Further, the TGI in the assay on OVCAR-4 ovarian, in the assay with OVCAR-3 ovarian, with SW-620 colon, with SK-MEL-5 melanoma and in the assay on MCF7 breast was more than 100 µM throughout.
In the case of `O=C(NS(=O)(=O)Nc1ccc(Cl)cc1)OCc1ccc(Cl)cc1Cl`, the TGI was more than 100 µM in the assay with UACC-257 melanoma; 45.5 µM with HCT-116 colon; 90.7 µM with OVCAR-8 ovarian; 44.2 µM in the assay on UO-31 renal; 38.8 µM with A498 renal; 48.2 µM in the assay with SK-OV-3 ovarian. Moreover, the TGI was 76.9 µM with OVCAR-4 ovarian; 36 µM with OVCAR-3 ovarian; more than 100 µM in the assay with SW-620 colon; 39.1 µM in the assay on SK-MEL-5 melanoma; 31.9 µM in the assay with MCF7 breast.
For `CC(=O)OCC1OC(N2C(=O)/C(=C\c3ccc(Cl)cc3)C(N)=Nc3ccccc32)C(OC(C)=O)C(OC(C)=O)C1OC(C)=O` (stereo not drawn), the TGI in the assay on UACC-257 melanoma is 66.6 µM; in the assay on HCT-116 colon it was 30.2 µM; in the assay on OVCAR-8 ovarian, 26.7 µM; in the assay with UO-31 renal it was 58.8 µM; in the assay on A498 renal, more than 100 µM; in the assay on SK-OV-3 ovarian it was more than 100 µM. Moreover, the TGI with OVCAR-4 ovarian is 66.4 µM; in the assay with OVCAR-3 ovarian it was 32.6 µM; with SW-620 colon, more than 100 µM; in the assay on SK-MEL-5 melanoma, 27.1 µM; in the assay with MCF7 breast it was 33.1 µM.
`O=C(Cc1nc2ccc(C(=O)c3ccccc3)cc2[nH]c1=O)C(=O)Nc1ccc(Br)cc1`: the TGI with UACC-257 melanoma, in the assay with HCT-116 colon, in the assay with OVCAR-8 ovarian, in the assay on UO-31 renal, in the assay on A498 renal and with SK-OV-3 ovarian was more than 100 µM in each case. For the same compound, the TGI in the assay with OVCAR-4 ovarian, with OVCAR-3 ovarian, in the assay on SW-620 colon, in the assay with SK-MEL-5 melanoma and with MCF7 breast was more than 100 µM throughout.
On to `Cc1ccc2c(c1C)CC1(Cc3c(ccc4c3CCC4)C1=O)C2=O` (stereo not drawn), for which the TGI in the assay with UACC-257 melanoma, in the assay on HCT-116 colon, in the assay with OVCAR-8 ovarian, in the assay on UO-31 renal, with A498 renal and in the assay with SK-OV-3 ovarian was more than 100 µM in each case. For the same compound, the TGI with OVCAR-4 ovarian, in the assay on OVCAR-3 ovarian, with SW-620 colon, in the assay with SK-MEL-5 melanoma and with MCF7 breast was more than 100 µM each time.
With `N#CC1=C(N)OC2=C(CSc3ccccc32)C1c1ccc(Br)cc1` (stereo not drawn), the TGI was determined as 30.2 µM with UACC-257 melanoma; 14.2 µM in the assay on HCT-116 colon; 14.8 µM in the assay with OVCAR-8 ovarian; 26.7 µM in the assay with UO-31 renal; 27.2 µM in the assay with A498 renal; 27 µM with SK-OV-3 ovarian. Also, the TGI in the assay with OVCAR-4 ovarian was found to be 19.3 µM; with OVCAR-3 ovarian, 21.6 µM; in the assay on SW-620 colon, 23.8 µM; in the assay on SK-MEL-5 melanoma, 25.7 µM; in the assay with MCF7 breast it was 13.8 µM.
Turning to `CCOC(=O)c1cc2c([N+](=O)[O-])c(NC(C)=O)ccc2s1`, the TGI in the assay with UACC-257 melanoma, in the assay on HCT-116 colon, in the assay with OVCAR-8 ovarian, in the assay on UO-31 renal, with A498 renal and in the assay with SK-OV-3 ovarian was more than 100 µM in each case. Besides, the TGI with OVCAR-4 ovarian, in the assay with OVCAR-3 ovarian, in the assay on SW-620 colon, with SK-MEL-5 melanoma and with MCF7 breast was more than 100 µM throughout.
In the case of `COc1ccc(Nc2c(C#N)c3n(c4ccccc24)c2ccccc2[n+]3C)cc1OC`, the TGI in the assay with UACC-257 melanoma was 17 µM; in the assay on HCT-116 colon it was 7.56 µM; in the assay with OVCAR-8 ovarian, 18.5 µM; in the assay with UO-31 renal, 7.23 µM; in the assay on A498 renal, 20.4 µM; in the assay with SK-OV-3 ovarian, 23.3 µM. Moreover, the TGI is 32.5 µM in the assay with OVCAR-4 ovarian; 11 µM in the assay with OVCAR-3 ovarian; 15.7 µM in the assay on SW-620 colon; 15.5 µM with SK-MEL-5 melanoma; 21.7 µM in the assay on MCF7 breast.
Turning to `COc1ccc2c(c1)c1c(n2CCN2CCOCC2)-c2ccccc2CC1`, the TGI in the assay with UACC-257 melanoma, with HCT-116 colon, in the assay on OVCAR-8 ovarian, in the assay on UO-31 renal, in the assay on A498 renal and in the assay with SK-OV-3 ovarian was more than 100 µM each time. Also, the TGI was more than 100 µM in the assay with OVCAR-4 ovarian; more than 100 µM in the assay with OVCAR-3 ovarian; more than 100 µM in the assay on SW-620 colon; 46.3 µM in the assay on SK-MEL-5 melanoma; more than 100 µM in the assay with MCF7 breast.
For `CC12CC(c3ccccc3O1)C(C(=O)Nc1ccc(F)cc1)C(=O)N2` (stereo not drawn), the TGI in the assay on UACC-257 melanoma, in the assay with HCT-116 colon, in the assay with OVCAR-8 ovarian, with UO-31 renal, with A498 renal and in the assay with SK-OV-3 ovarian was more than 100 µM throughout. Also, the TGI in the assay with OVCAR-4 ovarian, in the assay on OVCAR-3 ovarian, in the assay on SW-620 colon, with SK-MEL-5 melanoma and in the assay on MCF7 breast was more than 100 µM each time.
